Test results taken from PubChem BioAssay AID1117319 (Southern Research Institute, 2015).
Results filed as inconclusive are left out.

target: Virion infectivity factor (Human immunodeficiency virus type 1 group M subtype B (isolate BH10)) + Virion infectivity factor (Human immunodeficiency virus type 1 group M subtype B (isolate BRU/LAI)) + Virion infectivity factor (Human immunodeficiency virus type 1 group M subtype B (isolate PCV12)) + Virion infectivity factor (Human immunodeficiency virus type 1 group M subtype B (isolate HXB2)) + DNA dC->dU-editing enzyme APOBEC-3G (Homo sapiens) (UniProt P69720+P69721+P69722+P69723+Q9HC16); assay: inhibitors of Vif binding to APOBEC3G peptide, primary screen, biochemical, TR-FRET, GST-Vif 1-94, biotin-A3G peptide, dose response retest (AID 1117319);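 note: Vif residues 1-94 fused to GST binding biotinylated APOBEC3G peptide 110-148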

Row | Structure (SMILES) | IC50 [µM]
1 | COc1ccc(NC(=O)CN(C)C(=O)c2cccc(-n3cccc3)c2)cc1 | 14.9
2 | CC1(C)Cc2nc3sc4c(SCC(=O)NCc5ccco5)ncnc4c3cc2CO1 | 79.5
3 | CC1CCN(Cc2c(O)ccc3c2O/C(=C\c2ccco2)C3=O)CC1 | 3
4 | CC(=O)Nc1cc(NC(C)=O)cc(C(=O)N2CCCC3CCCCC32)c1 (centres undefined) | 9.5
5 | CCCCN1C2CCCC1CC(NC(=O)c1ccc(OC)c(OC)c1)C2 (centres undefined) | 19.1
6 | CN1C(=O)/C(=C/c2cccn2-c2ccc3ccccc3c2)C(=O)NC1=S | < 8.17
7 | N#C/C(=C\c1ccc([N+](=O)[O-])o1)C(=O)Nc1ccc(F)cc1 | 7.59
8 | COC(=O)CCC(=O)OC1(C)C(=O)C=C2C=C3CCCN3C=C2C1=O (centres undefined) | 2.23
9 | CC(=O)Nc1ccc(NC(=O)CSCc2cnn(-c3ccccc3)c2-n2cccc2)cc1 | 25.9
10 | O=C(O)CC1OCC=C2CN3CCC45C6=CC(=O)C(=O)C([N+](=O)[O-])=C6NC4C1C2CC35 (centres undefined) | 16.3
11 | CCOC(=O)NC1(NC2CCCCC2)Oc2ccccc2O1 | 7.31
12 | O=C1NC(=S)N(c2ccccc2)C(=O)/C1=C/c1ccco1 | 9.42
13 | Cn1cccc1/C=C1\C(=O)NC(=O)N(Cc2ccco2)C1=O | 9.46
14 | CC(/C=C1\SC(=S)N(CCCC(=O)Nc2ccc(C(=O)O)c(O)c2)C1=O)=C\c1ccccc1 | 5.1
15 | O=c1cc(-c2ccc(O)cc2)oc2c(O)c(O)c(O)c(O)c12 | 22.1
16 | Cc1cc(/C=C2\C(=O)NC(=O)N(c3cccc(F)c3)C2=O)c(C)n1-c1cc(C(=O)O)cc(C(=O)O)c1 | 10.2
17 | COc1cc(NCCCNC(C)C)c2nccc(C)c2c1 | 52.8
18 | Cc1nccn1CC(=O)N/N=C/c1ccc(O)c(O)c1 | 23.2
19 | CNc1ccccc(C(=O)/C=C/c2ccccc2OC)c1=O | 3.9
20 | Cc1cc(C)cc(NC(=O)CSc2nc3c(c(=O)n2C)SC(C)C3)c1 (centres undefined) | 21.8
21 | O=C(COc1ccccc1Cl)c1ccc[nH]1 | 2.91
22 | N#C/C(=C/c1ccc(N2CCCCCC2)o1)c1cccc(F)c1 | 24.6
23 | CN(CC(=O)Nc1ccc(F)cc1)C(=O)c1cc(-c2ccco2)nc2ccccc12 | 5.48
24 | Cn1c(SCC(=O)c2cc(Cl)c(Cl)s2)nnc1-c1ccco1 | 30.7
25 | CCCCN1C(=O)/C(=C/C=C/c2ccco2)C(=O)NC1=S | 4.61
26 | CCOC(=O)C1CCN(Cc2cnc(Oc3ccc(OC)cc3)s2)CC1 | 80.9
27 | CCC(=Nc1ccc(N)cc1)C1=C(O)C(C(=O)OC)C(C)(C)CC1=O (centres undefined) | 2.01

Row | Structure (SMILES) | IC50 [µM]
28 | CCOc1ccc(NC(=O)CCS(=O)(=O)c2ccc(Br)cc2)cc1 | 14.2
29 | Cc1cc(F)ccc1S(=O)(=O)Nc1ccccc1C(=O)Nc1ccc2[nH]c(=O)[nH]c2c1 | 78
30 | Cc1cc(C(=O)CCl)c(C)n1-c1c(C)n(C)n(-c2ccccc2)c1=O | 42.8
31 | O=[N+]([O-])c1ccc2c([N+](=O)[O-])ccc3c2c1CC3 | 12.2
32 | COCCCNC(=O)/C(C#N)=C/c1ccc(OCC(=O)O)c(OC)c1 | 4.12
33 | Cc1ccc(C)n1/N=C1/NC(=O)CS1 | 0.9
34 | CC1(C)C/C(=C(/C#N)C(N)=O)CCO1 | 80.7
35 | CCC(C(=O)OCC(=O)Nc1ccc(SC(F)F)cc1)c1ccccc1 (centres undefined) | 83.2
36 | CCN(CC)S(=O)(=O)c1ccc(/C=C/C(=O)Nc2ccc(N3CCOCC3)cc2)cc1 | 55.7
37 | CCn1c(COc2ccc3c(c2)OCO3)nnc1SCC(=O)c1ccc(Cl)cc1 | 78.1
38 | Cc1cc(C)c2c(c1)[C@@H]1C=CC[C@@H]1[C@H](c1ccc(S(=O)(=O)N3CCOCC3)cc1)N2 | 19.5
39 | CCn1c(SCC(=O)NCc2ccco2)nnc1-c1cccs1 | 95.8
40 | O=C(C1CCCO1)N1CCC2(CC1)OCCO2 (centres undefined) | 1.39
41 | O=c1oc2c(O)c(O)cc3c(=O)oc4c(O)c(O)cc1c4c23 | 0.45
42 | O=C(O)c1ccc(-n2cccc2/C=C2/NC(=O)N(c3ccccc3)C2=O)cc1 | 3.34
43 | Cc1ccc(C2C(C#N)=C(N)Oc3c2oc(CO)cc3=O)o1 (centres undefined) | 2.04
44 | CCOC(=O)C(C)N1C(=O)S/C(=C\c2ccc(-c3ccccc3C(=O)O)o2)C1=O (centres undefined) | 10.8
45 | CCOC(=O)C(=O)Cc1cccnn1 | 0.65
46 | COC(=O)CCC(=O)OC1(C)C(=O)C2=CN(CCCOC(C)C)C(c3ccc(OC)cc3)=CC2=C(Br)C1=O (centres undefined) | 11.5
47 | O=C(/C=C/c1ccco1)N(c1ccccn1)c1ccccn1 | 3.05
48 | c1coc(-c2nc3nc4ccccc4n3nc2-c2ccco2)c1 | 12.3
49 | O=c1c2cc(N3CCOCC3)ccc2[nH]c(=S)n1Cc1ccco1 | 7.24
50 | CCOc1cccc(=O)c2c(C)n(-c3ccc(C(=O)O)cc3)c(C)c12 | 4.49
51 | O=C1N=C(N2CCN(c3ccccc3)CC2)S/C1=C\c1ccco1 | 4.27
52 | O=c1cc(-c2ccccc2Cl)c2c([nH]1)CCC2 | 4.31
53 | CCN1CCc2c(C#N)c(NCc3ccccc3)nc(N(CC)CC)c2C1 | 62.8
54 | CCN1/C(=C(\O)c2ccccc2)C(=O)c2ccccc2S1(=O)=O | 55
